# System: moderate-to-severe chronic spontaneous urticaria (CSU)
# Experiment: Phase 2 CSU study: urticaria activity score over 7 days (UAS7)
# Format: in vivo, human
# Settings: for Change from Baseline in UAS7 at Week 12: Mean (SD) / Change from Baseline in UAS7 at Week 12: LS Mean Diff vs. placebo (95% CI) / Change from Baseline in UAS7 at Week 12: LS Mean (SE): Omalizumab-Naïve; for Imputed non-responder n (%), UAS7 = 0 / Imputed non-responder n (%), UAS7 ≤6 / Non-responder n (%), UAS7 = 0 / Non-responder n (%), UAS7 ≤6 / OR for rilzabrutinib vs. placebo, UAS7 = 0 / OR for rilzabrutinib vs. placebo, UAS7 ≤6 / RRD (%) for rilzabrutinib vs. placebo, UAS7 = 0 / RRD (%) for rilzabrutinib vs. placebo, UAS7 ≤6 / Responder n (%), UAS7 = 0 / Responder n (%), UAS7 ≤6: Omalizumab-naïve
# From the text: The study comprises a 12 week, randomized, double-blind, placebo-controlled, multi-center, dose-ranging efficacy and safety phase, followed by a 40 week open label extension (OLE) phase (see FIG. 1). The study consists of three phases and an optional OLE phase. […] Clinically, CSU is characterized by the spontaneous and recurrent appearance of pruritic hives. The proposed primary endpoints were the UAS7 at Week 12 in EU and EU reference countries and the ISS7 in the US. Regardless of where a participant was from, all assessments were the same. The UAS7 score is a composite score containing both the HSS7 and the ISS7. This allowed a global assessment of the two key components of urticaria: hives and itch. […] The UAS is a validated PRO measure. […] The daily UAS scores range from 0 to 6 point/day. […] Patients were to complete the UAS using the e-diary. […] The following secondary endpoints were to be analyzed using the same approach as for the primary endpoint: • Change from baseline in UAS7 at Week 4 • Change from baseline in UAS7 at Week 12 (for US and US reference countries) • Change from baseline in ISS7 at Week 12 (except US and US reference countries) • Change from baseline in HSS7 at Week 12 The following responder secondary endpoints were to be analyzed using the Cochran-Mantel-Haenszel test adjusted by region: • Proportion of participants with UAS7<6 at Week 12 • Proportion of participants with UAS7=0 at Week 12 Participants who received selected prohibited medications and/or rescue medications were to be considered as non-responders for time points after the medication usage. For other participants, all available data including those collected during the off-treatment period were to be used to determine the responder/non-responder status. Missing data were to be considered as non-responders.
# [1] = Region Latin America, 400 mg TID
# [2] = Region Western Countries, 400 mg BID
# [3] = Region Western Countries, 400 mg QPM
# [4] = Region Western Countries, 400 mg TID
structure (smiles),measurement,setting,value
"CC(C)(C=C(C#N)C(=O)N1CCC[C@@H](n2nc(-c3ccc(Oc4ccccc4)cc3F)c3c(N)ncnc32)C1)N1CCN(C2COC2)CC1 [rilzabrutinib, (R)-2-[3-[4-amino-3-(2-fluoro-4-phenoxy-phenyl)pyrazolo[3,4-d]pyrimidin-1-yl]piperidine-1-carbonyl]-4-methyl-4-[4-(oxetan-3-yl)piperazin-1-yl]pent-2-enenitrile]",Change from Baseline in UAS7 at Week 12: Mean (SD),"Region Latin America, 400 mg QPM",−13.28 (10.78)
same,Change from Baseline in UAS7 at Week 12: LS Mean Diff vs. placebo (95% CI),[1],"0.38 (−10.12, 10.88)"
same,Change from Baseline in UAS7 at Week 12: Mean (SD),[1],−14.07 (12.07)
same,Change from Baseline in UAS7 at Week 12: LS Mean (SE),[2],−20.19 (3.23)
same,Change from Baseline in UAS7 at Week 12: LS Mean Diff vs. placebo (95% CI),[2],"−12.21 (−21.37, −3.06)"
same,Change from Baseline in UAS7 at Week 12: Mean (SD),[2],−20.62 (10.65)
same,Change from Baseline in UAS7 at Week 12: LS Mean (SE),[3],−8.74 (4.03)
same,Change from Baseline in UAS7 at Week 12: Mean (SD),[3],−10.70 (8.61)
same,Change from Baseline in UAS7 at Week 12: LS Mean (SE),[4],−19.49 (3.03)
same,Change from Baseline in UAS7 at Week 12: Mean (SD),[4],−23.13 (10.61)
same,"Imputed non-responder n (%), UAS7 = 0","400 mg BID, Week 1",0 n (%)
same,"Imputed non-responder n (%), UAS7 ≤6","400 mg BID, Week 1",0 n (%)
same,"Non-responder n (%), UAS7 = 0","400 mg BID, Week 1",32 (91.4) n (%)
same,"Non-responder n (%), UAS7 ≤6","400 mg BID, Week 1",29 (82.9) n (%)
same,"OR for rilzabrutinib vs. placebo, UAS7 = 0","400 mg BID, Week 1",3.242
same,"OR for rilzabrutinib vs. placebo, UAS7 ≤6","400 mg BID, Week 1",3.183
same,"RRD (%) for rilzabrutinib vs. placebo, UAS7 = 0","400 mg BID, Week 1",5.6 %
same,"RRD (%) for rilzabrutinib vs. placebo, UAS7 ≤6","400 mg BID, Week 1",9.9 %
same,"Responder n (%), UAS7 = 0","400 mg BID, Week 1",3 (8.6) n (%)
same,"Responder n (%), UAS7 ≤6","400 mg BID, Week 1",6 (17.1) n (%)
same,"Imputed non-responder n (%), UAS7 = 0","400 mg BID, Week 2",1 (2.9) n (%)
same,"Imputed non-responder n (%), UAS7 ≤6","400 mg BID, Week 2",1 (2.9) n (%)
same,"Non-responder n (%), UAS7 = 0","400 mg BID, Week 2",33 (94.3) n (%)
same,"Non-responder n (%), UAS7 ≤6","400 mg BID, Week 2",31 (88.6) n (%)
same,"OR for rilzabrutinib vs. placebo, UAS7 = 0","400 mg BID, Week 2",2.024
same,"OR for rilzabrutinib vs. placebo, UAS7 ≤6","400 mg BID, Week 2",1.917
same,"RRD (%) for rilzabrutinib vs. placebo, UAS7 = 0","400 mg BID, Week 2",2.5 %
same,"RRD (%) for rilzabrutinib vs. placebo, UAS7 ≤6","400 mg BID, Week 2",4.4 %
same,"Responder n (%), UAS7 = 0","400 mg BID, Week 2",2 (5.7) n (%)
same,"Responder n (%), UAS7 ≤6","400 mg BID, Week 2",4 (11.4) n (%)
same,"Imputed non-responder n (%), UAS7 = 0","400 mg BID, Week 3",0 n (%)
same,"Imputed non-responder n (%), UAS7 ≤6","400 mg BID, Week 3",0 n (%)
same,"Non-responder n (%), UAS7 = 0","400 mg BID, Week 3",32 (91.4) n (%)
same,"Non-responder n (%), UAS7 ≤6","400 mg BID, Week 3",27 (77.1) n (%)
same,"OR for rilzabrutinib vs. placebo, UAS7 = 0","400 mg BID, Week 3",3.036
same,"OR for rilzabrutinib vs. placebo, UAS7 ≤6","400 mg BID, Week 3",2.894
same,"RRD (%) for rilzabrutinib vs. placebo, UAS7 = 0","400 mg BID, Week 3",5.0 %
same,"RRD (%) for rilzabrutinib vs. placebo, UAS7 ≤6","400 mg BID, Week 3",13.3 %
same,"Responder n (%), UAS7 = 0","400 mg BID, Week 3",3 (8.6) n (%)
same,"Responder n (%), UAS7 ≤6","400 mg BID, Week 3",8 (22.9) n (%)
same,"Imputed non-responder n (%), UAS7 = 0","400 mg BID, Week 4",2 (5.7) n (%)
same,"Imputed non-responder n (%), UAS7 ≤6","400 mg BID, Week 4",2 (5.7) n (%)
same,"Non-responder n (%), UAS7 = 0","400 mg BID, Week 4",32 (91.4) n (%)
same,"Non-responder n (%), UAS7 ≤6","400 mg BID, Week 4",25 (71.4) n (%)
same,"OR for rilzabrutinib vs. placebo, UAS7 = 0","400 mg BID, Week 4",1.372
same,"OR for rilzabrutinib vs. placebo, UAS7 ≤6","400 mg BID, Week 4",2.950
same,"RRD (%) for rilzabrutinib vs. placebo, UAS7 = 0","400 mg BID, Week 4",1.9 %
same,"RRD (%) for rilzabrutinib vs. placebo, UAS7 ≤6","400 mg BID, Week 4",15.8 %
same,"Responder n (%), UAS7 = 0","400 mg BID, Week 4",3 (8.6) n (%)
same,"Responder n (%), UAS7 ≤6","400 mg BID, Week 4",10 (28.6) n (%)
same,"Imputed non-responder n (%), UAS7 = 0","400 mg BID, Week 5",2 (5.7) n (%)
same,"Imputed non-responder n (%), UAS7 ≤6","400 mg BID, Week 5",2 (5.7) n (%)
same,"Non-responder n (%), UAS7 = 0","400 mg BID, Week 5",31 (88.6) n (%)
same,"Non-responder n (%), UAS7 ≤6","400 mg BID, Week 5",25 (71.4) n (%)
same,"OR for rilzabrutinib vs. placebo, UAS7 = 0","400 mg BID, Week 5",4.254
same,"OR for rilzabrutinib vs. placebo, UAS7 ≤6","400 mg BID, Week 5",6.525
same,"RRD (%) for rilzabrutinib vs. placebo, UAS7 = 0","400 mg BID, Week 5",8.1 %
same,"RRD (%) for rilzabrutinib vs. placebo, UAS7 ≤6","400 mg BID, Week 5",21.1 %
same,"Responder n (%), UAS7 = 0","400 mg BID, Week 5",4 (11.4) n (%)
same,"Responder n (%), UAS7 ≤6","400 mg BID, Week 5",10 (28.6) n (%)
same,"Imputed non-responder n (%), UAS7 = 0","400 mg BID, Week 6",2 (5.7) n (%)
same,"Imputed non-responder n (%), UAS7 ≤6","400 mg BID, Week 6",2 (5.7) n (%)
same,"Non-responder n (%), UAS7 = 0","400 mg BID, Week 6",31 (88.6) n (%)
same,"Non-responder n (%), UAS7 ≤6","400 mg BID, Week 6",26 (74.3) n (%)
same,"OR for rilzabrutinib vs. placebo, UAS7 = 0","400 mg BID, Week 6",4.048
same,"OR for rilzabrutinib vs. placebo, UAS7 ≤6","400 mg BID, Week 6",1.743
